# From patent publication US7517905B2, “Substituted azabicyclo hexane derivatives as muscarinic receptor antagonists” (Ranbaxy Laboratories Limited, priority 2003, dated 2009)
# Experiments:
# M2 muscarinic receptor = target: T1, M2 muscarinic receptor (Rattus norvegicus, UniProt P10980); test: Radioligand binding assay, [3H]-N-methyl scopolamine, rat heart membranes; details: [3H]NMS displacement, Ki by Cheng & Prusoff; for Ki: read-out: Receptor Binding Assay M2 pKi (converted)
# T1 construct: Submandibular glands and heart were isolated and placed in ice cold homogenizing buffer; from tissue; host or cells: rat heart membrane homogenate
# T1 sequence (P10980 1-466): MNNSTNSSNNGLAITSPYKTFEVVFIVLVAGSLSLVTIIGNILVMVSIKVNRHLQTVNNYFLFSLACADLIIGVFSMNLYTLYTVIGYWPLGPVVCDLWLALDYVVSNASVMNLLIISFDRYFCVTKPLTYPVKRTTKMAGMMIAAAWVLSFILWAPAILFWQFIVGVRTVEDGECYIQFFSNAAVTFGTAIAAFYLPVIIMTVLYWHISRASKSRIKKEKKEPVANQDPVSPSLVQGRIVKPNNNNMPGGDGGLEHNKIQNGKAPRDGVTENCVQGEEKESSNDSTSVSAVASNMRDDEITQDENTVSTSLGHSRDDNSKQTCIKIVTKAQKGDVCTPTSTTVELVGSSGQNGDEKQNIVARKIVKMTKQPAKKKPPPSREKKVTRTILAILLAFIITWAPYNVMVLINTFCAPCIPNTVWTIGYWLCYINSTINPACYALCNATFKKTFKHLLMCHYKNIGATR
# Protocol: The affinity of test compounds for M2 and M3 muscarinic receptor subtypes was determined by [^3H]—N-methyl scopolamine binding studies using rat heart and submandibular gland, respectively as described by Moriya et al., (Life Sci, 1999, 64(25): 2351-2358).
# (§1) Membrane preparation: Submandibular glands and heart were isolated and placed in ice cold homogenizing buffer (HEPES 20 mM, 10 mM EDTA, and pH 7.4) immediately after sacrifice. The tissues were homogenized in 10 volumes of homogenizing buffer and the homogenate was filtered through two layers of wet gauze and filtrate was centrifuged at 500 g for 10 min. The supernatant was subsequently centrifuged at 40.000 g for 20 min. The pallet thus obtained was resuspended in same volume of assay buffer (HEPES 20 mM, EDTA 5 mM, pH 7.4) and were stored at −70° C. until the time of assay.
# Ligand binding assay: The compounds were dissolved and diluted in dimethylsulfoxide. The membrane homogenates (150-250 μg protein) were incubated in 250 ul of assay buffer HEPES 20 mM, pH 7.4) at 24-25° C. for 3 hour. Non-specific binding was determined in the presence of 1 μM atropine. The incubation was terminated by vacuum filtration over GF/B fiber filters (Wallac). The filters were then washed with ice-cold 50 mM Tris HCI buffer (pH 7.4). The filter mats were dried and bound radioactivity retained on filters was counted. The IC50 & Kd were estimated by using the non-linear curve-fitting program using G Pad Prism software. The value of inhibition constant Ki was calculated from competitive binding studies by using Cheng & Prusoff equation (Biochem Pharmacol, 1973.22: 3099-3108), Ki=IC50/(1+L/Kd), where L is the concentration of [^3H]NMS used in the particular experiment. pKi=−log Ki Functional Experiments using Isolated Rat Bladder: Methodology: […]
# isolated rat bladder = test: Functional experiments using isolated rat bladder (carbachol concentration response curve); format: cell-based; details: isolated rat bladder strips, carbachol-induced contraction, antagonist added 20 min before second CRC; for Kb: read-out: Functional Assay pKB (converted)
# Protocol: Animals were euthanized by overdose of urethane and whole bladder was isolated and removed rapidly and placed in cold Tyrode buffer with the following composition (mMol/L) sodium chloride 137; KCl 2.7, CaCl2 1.8, MgCl2 0.1; NaHCO3 11.9, NaH2PO4 0.4; Glucose 5.55 and continuously gassed with 95% O2 and 5% CO2
# The bladder was cut into longitudinal strips (3 mm wide and 5-6 mm long) and mounted in 10 ml organ baths at 30° C., with one end connected to the base of the tissue holder and the other end connected to a polygraph through a force displacement transducer. Each tissue was maintained at a constant basal tension of 2 g and allowed to equilibrate for 1 hour during which the PSS was changed every 15 min. At the end of equilibration period, the stabilization of the tissue contractile response was assessed with 1 u mol/L of carbachol consecutively for 2-3 times. Subsequently, a cumulative concentration response curve to carbachol (10^−9 mol/L to 3×10^−5 mol/L) was obtained. After several washes, once the baseline was achieved, cumulative concentration response curve was obtained in the presence of NCE (NCE added 20 min. prior to the second CRC).
# The contractile results were expressed as % of control E max ED50 values were calculated by fitting a non-linear regression curve (Graph Pad Prism). PKB values were calculated by the formula pKB=−log [(molar concentration of antagonist/(dose ratio-1))] where,
# dose ratio=ED50 in the presence of antagonist/ED50 in the absence of antagonist.
# M3 muscarinic receptor = target: T2, M3 muscarinic receptor (Rattus norvegicus, UniProt P08483); test: Radioligand binding assay, [3H]-N-methyl scopolamine, rat submandibular gland membranes; details: [3H]NMS displacement, Ki by Cheng & Prusoff; for Ki: read-out: Receptor Binding Assay M3 pKi (converted)
# T2 construct: Submandibular glands and heart were isolated and placed in ice cold homogenizing buffer; from tissue; host or cells: rat submandibular gland membrane homogenate
# Protocol: as §1
# Ligand binding assay: The compounds were dissolved and diluted in dimethylsulfoxide. The membrane homogenates (150-250 μg protein) were incubated in 250 ul of assay buffer HEPES 20 mM, pH 7.4) at 24-25° C. for 3 hour. Non-specific binding was determined in the presence of 1 μM atropine. The incubation was terminated by vacuum filtration over GF/B fiber filters (Wallac). The filters were then washed with ice-cold 50 mM Tris HCI buffer (pH 7.4). The filter mats were dried and bound radioactivity retained on filters was counted. The IC50 & Kd were estimated by using the non-linear curve-fitting program using G Pad Prism software.
# T2 sequence (P08483 whole entry): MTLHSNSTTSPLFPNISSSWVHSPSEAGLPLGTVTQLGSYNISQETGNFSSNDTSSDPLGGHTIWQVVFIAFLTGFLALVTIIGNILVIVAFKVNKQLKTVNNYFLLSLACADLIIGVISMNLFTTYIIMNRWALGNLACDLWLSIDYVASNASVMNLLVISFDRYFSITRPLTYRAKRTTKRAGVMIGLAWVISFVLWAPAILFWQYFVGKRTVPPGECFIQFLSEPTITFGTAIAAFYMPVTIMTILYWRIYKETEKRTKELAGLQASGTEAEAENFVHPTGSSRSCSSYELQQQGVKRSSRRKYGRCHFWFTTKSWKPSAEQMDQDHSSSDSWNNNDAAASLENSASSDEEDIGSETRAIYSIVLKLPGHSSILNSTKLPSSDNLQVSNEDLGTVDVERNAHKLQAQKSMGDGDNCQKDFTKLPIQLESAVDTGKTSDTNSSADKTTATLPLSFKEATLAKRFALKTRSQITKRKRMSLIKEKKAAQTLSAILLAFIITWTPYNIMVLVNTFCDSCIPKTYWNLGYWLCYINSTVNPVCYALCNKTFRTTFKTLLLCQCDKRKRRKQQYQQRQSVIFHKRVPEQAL
Molecule,Receptor Binding Assay M2 pKi (M2 muscarinic receptor),Functional Assay pKB (isolated rat bladder),Receptor Binding Assay M3 pKi (M3 muscarinic receptor),Ki (M2 muscarinic receptor),Kb (isolated rat bladder),Ki (M3 muscarinic receptor)
"COc1ccc(C)cc1C(CC(=O)NC1C2CNCC21)c1ccccc1 (centres unmarked) [Compound No. 4, N-(3-azabicyclo[3.1.0]hex-6-yl)-3-(2-methoxy-5-methylphenyl)-3-phenyl-1-propionamide]",<6,5.64,<6,,,
"COc1ccc(C)cc1C(CC(=O)OCC(=O)NC1C2CN(Cc3ccccc3)CC21)c1ccccc1 (centres unmarked) [Compound No. 1, 3-(2-Methoxy-5-methylphenyl)-3-phenyl propanoic acid-(3-benzyl-3-azabicyclo[3.1.0]hexane-6-yl-carbamoyl)methyl ester]",,,,> 1000 nM,9770 nM,> 1000 nM
"COc1ccc(C)cc1C(CC(=O)NCC(=O)N[C@H]1[C@@H]2CN(Cc3ccccc3)C[C@@H]21)c1ccccc1 (some centres unmarked) [Compound No. 10, N-[(3-benzyl-3-azabicyclo[3.1.0]hex-6-ylcarbamoyl]-methyl]-3(-2-methoxy-5-methylphenyl)-3-phenyl propionamide]",,,,> 1000 nM,1950 nM,> 1000 nM
"Cc1ccc(O)c(C(CCNC2C3CN(Cc4ccccc4)CC32)c2ccccc2)c1 (single isomer, unassigned) [Compound No. 16, (R or S)—N-(3-benzy-1-3-azabicyclo[3.1.0]hex-6-yl]-[3-(2-hydroxy-5-methylphenyl)-3-phenylpropyl]amine]",,7.25 ± 0.15,,,,
"Cc1ccc(O)c([C@H](CCN(C(C)C)C(C)C)c2ccccc2)c1 [Tolterodine, reference compound]",,,,,1.38 nM,
"Cc1ccc(O)c(C(CC(=O)NCC(=O)NC2C3CN(Cc4ccccc4)CC32)c2ccccc2)c1 (centres unmarked) [Compound No. 9, N-[(3-benzyl-3-azabicyclo[3.1.0]hex-6-ylcarbamoyl)-methyl]-3-(2-hydroxy-5-methylphenyl)-3-phenyl-propionamide]",,,,> 1000 nM,1910 nM,> 1000 nM
"Cc1ccc(O)c(C(CC(=O)OCC(=O)NC2C3CNCC32)c2ccccc2)c1 (centres unmarked) [Compound No. 8, 3-(2-hydroxy-5-methylphenyl)-3-phenylpropionic acid-(3-azabicyclo[3.1.0]hex-6-ylcarbamoyl)methyl ester]",,No blockade,,> 1000 nM,,> 1000 nM
"COc1ccc(C)cc1C(CC(=O)OCC(=O)NC1C2CNCC21)c1ccccc1 (centres unmarked) [Compound No. 7, 3-(2-methoxy-5-methylphenyl)-3-phenylpropionic acid-(3-azabicyclo[3.1.0]hex-6-ylcarbamoyl)methyl ester]",,,,> 1000 nM,2510 nM,> 1000 nM
"Cc1ccc(O)c(C(CC(=O)NC2C3CNCC32)c2ccccc2)c1 (centres unmarked) [Compound No. 3, N-(3-azabicyclo[3.1.0]hex-6-yl)-3-(2-hydroxy-5-methylphenyl)-3-phenyl-1-propanoic acid]",<6,5.95,<6,,,
"CCOC(=O)N(CCCCOC(=O)CC(c1ccccc1)c1cc(C)ccc1OC)C1C2CN(Cc3ccccc3)CC21 (centres unmarked) [Compound No. 12, 3-(2-methoxy-5-methylphenyl)-3-phenylpropionic acid-4-[(3-benzyl-3-azabicyclo[3.1.0]hex-6-yl)-ethoxycarbonylamino]butyl ester]",<6,6.72,<6,,,
"Cc1ccc(O)c(C(CC(=O)OCCCCNOCCC2C3CNCC23)c2ccccc2)c1 (centres unmarked) [Compound No. 6, 3-(2-hydroxy-5-methylphenyl)-3-phenylpropionic acid 4-[(3-azabicyclo[3.1.0]hex-6-yl)ethoxyamino]butyl ester]",<6,5.84,<6,,,
"Cc1ccc(OCc2ccccc2)c(C(CC(=O)OCC(=O)NC2C3CN(Cc4ccccc4)CC32)c2ccccc2)c1 (centres unmarked) [Compound No. 2, 3-(2-benzyloxy-5-methylphenyl)-3-phenyl propanoic acid-(3-benzyl-3-azabicyclo[3.1.0]-hex-6-ylcarbamoyl)-methyl ester]",,,,> 1000 nM,6760 nM,> 1000 nM
"Cc1ccc(O)c(C(CC(=O)N[C@H]2[C@@H]3CN(Cc4ccccc4)C[C@@H]32)c2ccccc2)c1 (some centres unmarked) [Compound No. 11, N-(3-benzyl-3-azabicyclo[3.1.0]hex-6-yl)-3-(2-hydroxy-5-methylphenyl)-3-phenyl propionamide]",,,,> 1000 nM,6760 nM,> 1000 nM
3-(2-methoxy-5-methylphenyl)-3-phenylpropanoic acid-4-[(3-azabicyclo[3.1.0]hex-6-yl]-ethoxy carbonylamino]butyl ester [Compound No. 5],<6,5.15,<6,,,
